From paper PMC10237672, “Design and synthesis of novel anti-urease imidazothiazole derivatives with promising antibacterial activity against Helicobacter pylori” (PLOS ONE, 2023)
Converted amounts (≈) assume the structure as drawn. Counter-ions that a name gives are not always drawn. Like-named read-outs stand apart in the source and are kept apart here.

Legend:
H. pylori [1] = experiment: MIC against H. pylori, agar dilution method; format: cell-based, Helicobacter pylori; settings: Helicobacter pylori, ATCC43504; H. pylori ATCC 43504, agar dilution; read-out: MIC value against H. pylori ± SEM
H. pylori [2] = experiment: IC50 against H. pylori, micro broth dilution test; format: cell-based, Helicobacter pylori; settings: Helicobacter pylori, ATCC43504; H. pylori ATCC 43504, micro broth dilution, 72 h, OD 600 nm; read-out: IC50 value against H. pylori ± SEM
Jack bean urease = biological target: T1, Jack bean urease (Canavalia ensiformis, UniProt P07374); experiment: biochemical; format: biochemical
T1 construct: purchased Sigma Aldrich
Experimental: Reaction mixture comprising 40 μL of buffer (K2HPO4: 10 mmol/L, urea: 100 mmol/L, […]: 10 mmol/L, EDTA: 1 /L mmol, pH = 8.2) and 5 U/mL enzyme (10 μL) were pre-incubated with 10 μL of synthesized compounds (1 mM) and substrate urea (1 mM) were incubated at room temperature in 96 well plate for half an hour. After the incubation at room temperature, absorbance was taken at specific wavelength (630 nm) employing a microplate reader (Bio-Tek, USA) with R1 and R2 reagents in each well. The reactions were measured in triplicate fashion. To calculate the inhibition percentage following equation was used.
Percentage inhibition = 100 –[tested compound/control compound] × 100.

Caco-2 A-B permeability = format: in vitro ADME; settings: human, pH 6.5–7.4, test concentration = MIC against H. pylori (19-50 μM), reference drugs 10 μM
Experimental: The apparent permeability coefficient (Papp) of the test compound was calculated as follows: Papp(cm/s)=VR*CR,end/Δt*1/A*(CD,mid‐CR,mid) where VR is the volume of the receiver chamber. CR,end is the concentration of the test compound in the receiver chamber at the end time point, Δt is the incubation time and A is the surface area of the cell monolayer. CD,mid is the calculated mid-point concentration of the test compound in the donor side, which is the mean value of the donor concentration at time 0 minute and the donor concentration at the end time point. CR,mid is the mid-point concentration of the test compound in the receiver side, which is one half of the receiver concentration at the end time point. Concentrations of the test compound were expressed as peak areas of the test compound.
The recovery of the test compound was calculated as follows: Recovery(%)=VD*CD,end+VR*CR,end/VD*CD0*100 where VD and VR are the volumes of the donor and receiver chambers, respectively. CD,end is the concentration of the test compound in the donor sample at the end time point. CR,end is the concentration of the test compound in the receiver sample at the end time point. CD0 is the concentration of the test compound in the donor sample at time zero. Concentrations of the test compound are expressed as peak areas of the test compound.
Fluorescein was used as the cell monolayer integrity marker. Fluorescein permeability assessment (in the A-B direction at pH 7.4 on both sides) was executed after the permeability assay for the test compound.

T1 sequence (P07374 whole entry, looked up): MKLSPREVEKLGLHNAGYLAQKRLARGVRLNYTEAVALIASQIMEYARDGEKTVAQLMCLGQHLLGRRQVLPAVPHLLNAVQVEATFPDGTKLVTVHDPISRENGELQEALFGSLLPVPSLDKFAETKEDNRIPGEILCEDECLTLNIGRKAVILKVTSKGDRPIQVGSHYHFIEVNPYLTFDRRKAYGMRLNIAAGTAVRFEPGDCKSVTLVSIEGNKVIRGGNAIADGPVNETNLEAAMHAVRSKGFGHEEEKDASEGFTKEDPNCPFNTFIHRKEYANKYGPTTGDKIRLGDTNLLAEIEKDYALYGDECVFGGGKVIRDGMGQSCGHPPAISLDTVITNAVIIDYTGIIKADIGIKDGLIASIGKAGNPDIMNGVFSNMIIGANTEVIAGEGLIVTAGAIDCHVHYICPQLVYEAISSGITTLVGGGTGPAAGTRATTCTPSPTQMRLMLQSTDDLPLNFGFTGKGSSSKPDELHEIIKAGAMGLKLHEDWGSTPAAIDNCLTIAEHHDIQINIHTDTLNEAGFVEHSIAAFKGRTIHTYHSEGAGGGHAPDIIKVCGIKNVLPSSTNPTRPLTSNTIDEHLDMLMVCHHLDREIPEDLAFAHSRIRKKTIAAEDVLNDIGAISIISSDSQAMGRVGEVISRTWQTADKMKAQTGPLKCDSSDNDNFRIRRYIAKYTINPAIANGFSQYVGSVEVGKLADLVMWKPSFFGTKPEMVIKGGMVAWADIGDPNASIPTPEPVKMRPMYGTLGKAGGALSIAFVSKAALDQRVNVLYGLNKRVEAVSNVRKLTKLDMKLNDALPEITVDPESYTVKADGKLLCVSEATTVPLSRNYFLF

SMILES	melting point [°C]	MIC (H. pylori [1]) [µM]	IC50 (H. pylori [2]) [µM]	IC50 (Jack bean urease) [µM]	Papp (Caco-2 A-B permeability) [×10⁻⁶ cm/s]	recovery (Caco-2 A-B permeability) [%]	IC50 (Jack bean urease; indophenol method, triplicate, thiourea positive control, read-out: Potency against urease IC50 ± SEM) [µM]
O=S(=O)(Oc1cccc(-c2nc3sccn3c2-c2ccccc2)c1)c1ccccc1 (as salt: benzenesulfonate) [Compound 1e, 3-(5-Phenylimidazo[2,1-b]thiazol-6-yl)phenyl benzenesulfonate]	119 to 122	–	–	–	–	–	–
O=S(=O)(Oc1cccc(-c2nc3sccn3c2-c2ccccc2)c1)c1ccc(F)cc1 (as salt: benzenesulfonate) [Compound 1f, 3-(5-Phenylimidazo[2,1-b]thiazol-6-yl)phenyl 4-fluorobenzenesulfonate]	109 to 111	–	–	–	–	–	–
CS(=O)(=O)c1cccc(-c2c(-c3cccc(OS(=O)(=O)c4ccccc4)c3)nc3sccn23)c1 (as salt: benzenesulfonate) [Compound 2e, 3-(5-(3-(Methylsulfonyl)phenyl)imidazo[2,1-b]thiazol-6-yl)phenyl benzenesulfonate]	193 to 195	–	–	–	–	–	–
CS(=O)(=O)c1cccc(-c2c(-c3cccc(OS(=O)(=O)c4ccc(F)cc4)c3)nc3sccn23)c1 (as salt: benzenesulfonate) [Compound 2f, 3-(5-(3-(Methylsulfonyl)phenyl)imidazo[2,1-b]thiazol-6-yl)phenyl 4-fluorobenzenesulfonate]	103 to 105	–	–	–	–	–	–
CCS(=O)(=O)Oc1cccc(-c2nc3sccn3c2-c2ccccc2)c1 [Compound 1b, 3-(5-Phenylimidazo[2,1-b]thiazol-6-yl)phenyl ethanesulfonate]	119 to 121	800	82 ± 29	4.01 ± 0.11	–	–	–
CCCS(=O)(=O)Oc1cccc(-c2nc3sccn3c2-c2ccccc2)c1 [Compound 1c, 3-(5-Phenylimidazo[2,1-b]thiazol-6-yl)phenyl propane-1-sulfonate]	120 to 123	800 (≈ 319 µg/mL)	364	4.04 ± 0.09	–	–	–
O=S(=O)(Oc1cccc(-c2nc3sccn3c2-c2ccccc2)c1)c1ccccc1 [Compound 1e, 3-(5-Phenylimidazo[2,1-b]thiazol-6-yl)phenyl benzenesulfonate]	–	400	153 ± 33	4.3 ± 0.01	–	–	–
O=S(=O)(Oc1cccc(-c2nc3sccn3c2-c2ccccc2)c1)c1ccc(F)cc1 [Compound 1f, 3-(5-Phenylimidazo[2,1-b]thiazol-6-yl)phenyl 4-fluorobenzenesulfonate]	–	200 (≈ 90.1 µg/mL)	147	5.17 ± 0.01	–	–	–
Cc1ccc(S(=O)(=O)Oc2cccc(-c3nc4sccn4c3-c3ccccc3)c2)cc1 [Compound 1g, 3-(5-Phenylimidazo[2,1-b]thiazol-6-yl)phenyl 4-methylbenzenesulfonate]	103 to 106	150 ± 29 (≈ 67 µg/mL)	37 ± 6	3.22 ± 0.06	–	–	–
CNS(=O)(=O)Oc1cccc(-c2nc3sccn3c2-c2ccccc2)c1 [Compound 1i, 3-(5-Phenylimidazo[2,1-b]thiazol-6-yl)phenyl methylsulfamate]	161 to 164	800 (≈ 308 µg/mL)	285 ± 92	5.51 ± 0.17	–	–	–
O=S(=O)(Oc1cccc(-c2nc3sccn3c2-c2ccccc2)c1)N1CCCCC1 [Compound 1j, 3-(5-Phenylimidazo[2,1-b]thiazol-6-yl)phenyl piperidine-1-sulfonate]	112 to 115	200 (≈ 87.9 µg/mL)	131 ± 2	6.97 ± 0.09	–	–	–
CS(=O)(=O)Oc1cccc(-c2nc3sccn3c2-c2cccc(S(C)(=O)=O)c2)c1 [Compound 2a, 3-(5-(3-(Methylsulfonyl)phenyl)imidazo[2,1-b]thiazol-6-yl)phenyl methanesulfonate]	159 to 160	250 ± 50	118 ± 5	5.01 ± 0.03	–	–	–
CCS(=O)(=O)Oc1cccc(-c2nc3sccn3c2-c2cccc(S(C)(=O)=O)c2)c1 [Compound 2b, 3-(5-(3-(Methylsulfonyl)phenyl)imidazo[2,1-b]thiazol-6-yl)phenyl ethanesulfonate]	206 to 209	800	255 ± 35	4.97 ± 0.11	–	–	–
CS(=O)(=O)c1cccc(-c2c(-c3cccc(OS(=O)(=O)c4ccccc4)c3)nc3sccn23)c1 [Compound 2e, 3-(5-(3-(Methylsulfonyl)phenyl)imidazo[2,1-b]thiazol-6-yl)phenyl benzenesulfonate]	–	409 ± 391	331 ± 21	5.21 ± 0.03	–	–	–
Cc1ccc(S(=O)(=O)Oc2cccc(-c3nc4sccn4c3-c3cccc(S(C)(=O)=O)c3)c2)cc1 [Compound 2g, 3-(5-(3-(Methylsulfonyl)phenyl)imidazo[2,1-b]thiazol-6-yl)phenyl 4-methylbenzenesulfonate]	172 to 174	275 ± 125 (≈ 144 µg/mL)	103 ± 88	5.59 ± 0.04	–	–	–
CS(=O)(=O)c1cccc(-c2c(-c3cccc(OS(N)(=O)=O)c3)nc3sccn23)c1 [Compound 2h, 3-(5-(3-(Methylsulfonyl)phenyl)imidazo[2,1-b]thiazol-6-yl)phenyl sulfamate]	150 to 153	400 (≈ 180 µg/mL)	225 ± 5	4.72 ± 0.13	–	–	–
CNS(=O)(=O)Oc1cccc(-c2nc3sccn3c2-c2cccc(S(C)(=O)=O)c2)c1 [Compound 2i, 3-(5-(3-(Methylsulfonyl)phenyl)imidazo[2,1-b]thiazol-6-yl)phenyl methylsulfamate]	> 250	250 ± 50 (≈ 116 µg/mL)	123 ± 15	4.74 ± 0.21	–	–	–
CS(=O)(=O)c1cccc(-c2c(-c3cccc(OS(=O)(=O)N4CCCCC4)c3)nc3sccn23)c1 [Compound 2j, 3-(5-(3-(Methylsulfonyl)phenyl)imidazo[2,1-b]thiazol-6-yl)phenyl piperidine-1-sulfonate]	76 to 79	800 (≈ 414 µg/mL)	288 ± 18	5.82 ± 0.02	–	–	–
CC(CCc1ccccc1)NCC(O)c1ccc(O)c(C(N)=O)c1 (centres unmarked) [Labetalol, reference compound]	–	–	–	–	19.2 ± 0.56	99.1	–
CC(C)NCC(O)COc1cccc2ccccc12 (centres unmarked) [Propranolol, reference compound]	–	–	–	–	39 ± 0.44	88.7	–
NC(N)=S [thiourea, reference compound]	–	–	–	–	–	–	22.3 ± 0.031
